# Experimental data reported in ChEMBL document CHEMBL3885861, “Open TG-GATES”.
# Species: Rattus norvegicus
# Experiment: Open TG-GATES - Regimen: Single
# Assay type: toxicity, organism-based, Sprague-Dawley
# Parameters: regimen Single, gender Male, age 6 weeks
# Details: in vivo, po, 120 mg/kg, route gavage, dose level Middle; for APTT / Bas / Eos / Fbg / Hb / Ht / Lym / MCH / MCHC / MCV / Mono / Neu / PT / Plat / RBC / Ret / WBC: tissue Blood; for KIDNEY_L / KIDNEY_R / KIDNEY_TOTAL: tissue Kidney; for LIVER: tissue Liver; for A/G / ALP / ALT / AST / BUN / CRE / Ca / Cl / DBIL / GLC / IP / K / LDH / Na / PL / RALB / TBIL / TC / TG / TP / gamma-GTP: tissue Plasma
smiles,measurement,setting,value
COc1ccc(Cc2nccc3cc(OC)c(OC)cc23)cc1OC [PAPAVERINE],TERMINAL_BW,3 h,221.6 g
same,APTT,3 h,22.7 s
same,Bas,3 h,0%
same,Eos,3 h,1%
same,Fbg,3 h,312.8 mg/dL
same,Hb,3 h,13.4 g/dL
same,Ht,3 h,40.5%
same,Lym,3 h,77.6%
same,MCH,3 h,20.9 pg
same,MCHC,3 h,33.2%
same,MCV,3 h,63 fL
same,Mono,3 h,2.4%
same,Neu,3 h,17.8%
same,PT,3 h,15.9 s
same,Plat,3 h,108.5 x10_4/uL
same,RBC,3 h,641.8 x10_4/ul
same,Ret,3 h,7.3%
same,WBC,3 h,88.5 x10_2/uL
same,KIDNEY_L,3 h,0.9 g
same,KIDNEY_R,3 h,1 g
same,KIDNEY_TOTAL,3 h,1.9 g
same,LIVER,3 h,9.5 g
same,A/G,3 h,1.2
same,ALP,3 h,1542 IU/L
same,ALT,3 h,43.6 IU/L
same,AST,3 h,78.6 IU/L
same,BUN,3 h,11.4 mg/dL
same,CRE,3 h,0.1 mg/dL
same,Ca,3 h,11 mg/dL
same,Cl,3 h,107.8 meq/L
same,DBIL,3 h,0 mg/dL
same,GLC,3 h,181.4 mg/dL
same,IP,3 h,8.7 mg/dL
same,K,3 h,4 meq/L
same,LDH,3 h,162.8 IU/L
same,Na,3 h,141.8 meq/L
same,PL,3 h,128.4 mg/dL
same,RALB,3 h,2.9 g/dL
same,TBIL,3 h,0.008 mg/dL
same,TC,3 h,74.6 mg/dL
same,TG,3 h,43.8 mg/dL
same,TP,3 h,5.3 g/dL
same,gamma-GTP,3 h,2 IU/L
same,TERMINAL_BW,6 h,219.8 g
same,APTT,6 h,20.9 s
same,Bas,6 h,0%
same,Eos,6 h,0.8%
same,Fbg,6 h,317.8 mg/dL
same,Hb,6 h,13 g/dL
same,Ht,6 h,39.5%
same,Lym,6 h,80.2%
same,MCH,6 h,20.9 pg
same,MCHC,6 h,32.9%
same,MCV,6 h,63.7 fL
same,Mono,6 h,2.8%
same,Neu,6 h,14.6%
same,PT,6 h,15.8 s
same,Plat,6 h,131.3 x10_4/uL
same,RBC,6 h,622.4 x10_4/ul
same,Ret,6 h,8.7%
same,WBC,6 h,116 x10_2/uL
same,KIDNEY_L,6 h,1 g
same,KIDNEY_R,6 h,1 g
same,KIDNEY_TOTAL,6 h,1.9 g
same,LIVER,6 h,9.5 g
same,A/G,6 h,1.3
same,ALP,6 h,1418.8 IU/L
same,ALT,6 h,36.6 IU/L
same,AST,6 h,71.6 IU/L
same,BUN,6 h,11.2 mg/dL
same,CRE,6 h,0.2 mg/dL
same,Ca,6 h,11.4 mg/dL
same,Cl,6 h,107.2 meq/L
same,DBIL,6 h,0 mg/dL
same,GLC,6 h,181 mg/dL
same,IP,6 h,9.4 mg/dL
same,K,6 h,4.3 meq/L
same,LDH,6 h,166.2 IU/L
same,Na,6 h,140.4 meq/L
same,PL,6 h,137.4 mg/dL
same,RALB,6 h,3.1 g/dL
same,TBIL,6 h,0.022 mg/dL
same,TC,6 h,78.2 mg/dL
same,TG,6 h,63.8 mg/dL
same,TP,6 h,5.5 g/dL
same,gamma-GTP,6 h,2.4 IU/L
same,TERMINAL_BW,9 h,217.8 g
same,APTT,9 h,22.6 s
same,Bas,9 h,0%
same,Eos,9 h,1%
same,Fbg,9 h,319.4 mg/dL
same,Hb,9 h,13.2 g/dL
same,Ht,9 h,39.5%
same,Lym,9 h,73.8%
same,MCH,9 h,20.6 pg
same,MCHC,9 h,33.4%
same,MCV,9 h,61.8 fL
same,Mono,9 h,2.8%
same,Neu,9 h,22%
same,PT,9 h,16.2 s
same,Plat,9 h,117.1 x10_4/uL
same,RBC,9 h,638.6 x10_4/ul
same,Ret,9 h,6.6%
same,WBC,9 h,87.6 x10_2/uL
same,KIDNEY_L,9 h,0.9 g
same,KIDNEY_R,9 h,1 g
same,KIDNEY_TOTAL,9 h,1.9 g
same,LIVER,9 h,8.9 g
same,A/G,9 h,1.2
same,ALP,9 h,1569.2 IU/L
same,ALT,9 h,39.2 IU/L
same,AST,9 h,72 IU/L
same,BUN,9 h,11.6 mg/dL
same,CRE,9 h,0.1 mg/dL
same,Ca,9 h,11 mg/dL
same,Cl,9 h,107.6 meq/L
same,DBIL,9 h,0 mg/dL
same,GLC,9 h,183.8 mg/dL
same,IP,9 h,8.9 mg/dL
same,K,9 h,3.9 meq/L
same,LDH,9 h,183.2 IU/L
same,Na,9 h,141 meq/L
same,PL,9 h,132.8 mg/dL
same,RALB,9 h,3 g/dL
same,TBIL,9 h,0.022 mg/dL
same,TC,9 h,74 mg/dL
same,TG,9 h,54.6 mg/dL
same,TP,9 h,5.4 g/dL
same,gamma-GTP,9 h,1.6 IU/L
same,TERMINAL_BW,24 h,231.5 g
same,APTT,24 h,19.5 s
same,Bas,24 h,0%
same,Eos,24 h,1%
same,Fbg,24 h,327.8 mg/dL
same,Hb,24 h,13.3 g/dL
same,Ht,24 h,39.7%
same,Lym,24 h,80.2%
same,MCH,24 h,21 pg
same,MCHC,24 h,33.5%
same,MCV,24 h,62.7 fL
same,Mono,24 h,2%
same,Neu,24 h,15.2%
same,PT,24 h,15.6 s
same,Plat,24 h,124.7 x10_4/uL
same,RBC,24 h,633.8 x10_4/ul
same,Ret,24 h,7.6%
same,WBC,24 h,82.4 x10_2/uL
same,KIDNEY_L,24 h,1 g
same,KIDNEY_R,24 h,1 g
same,KIDNEY_TOTAL,24 h,2 g
same,LIVER,24 h,11.2 g
same,A/G,24 h,1.3
same,ALP,24 h,1530.4 IU/L
same,ALT,24 h,39.4 IU/L
same,AST,24 h,67.6 IU/L
same,BUN,24 h,15 mg/dL
same,CRE,24 h,0.1 mg/dL
same,Ca,24 h,11.1 mg/dL
same,Cl,24 h,105.8 meq/L
same,DBIL,24 h,0 mg/dL
same,GLC,24 h,189 mg/dL
same,IP,24 h,7.8 mg/dL
same,K,24 h,4.2 meq/L
same,LDH,24 h,171.2 IU/L
same,Na,24 h,143.4 meq/L
same,PL,24 h,152.4 mg/dL
same,RALB,24 h,3.1 g/dL
same,TBIL,24 h,0.006 mg/dL
same,TC,24 h,79.2 mg/dL
same,TG,24 h,145.2 mg/dL
same,TP,24 h,5.6 g/dL
same,gamma-GTP,24 h,1.4 IU/L
